Laboratory results published in patent publication US9273095B2, “Antibiotic peptide and preparation method therefor and application therefor” (priority 2011, dated 2016).
Values after ≈ are worked out from the molar mass of the structure shown. Non-standard residues stand in square brackets, D forms with d. Residues, ends and D or L forms follow the SMILES beside them.

Columns and labels:
candida glabrata = test: microbe, parasite or virus in culture; type: cell-based
Procedure: (§1) • (1) Test strains: monilia albicans (candida albicans), candida glabrata, candida krusei, candida tropicalis, aspergillus fumigatus and flavous. Antimicrobial peptides PL-13 (SEQ ID NO: 1) under test are supplied by Jiangsu ProteLight Pharmaceutical & Biotechnology Co., LTD. […] Activation of bacterial strains is conducted at a humidity level of 60% and 25° C. (for aspergillus) or 37° C. (for candida). (2) 0.9% stroke-physiological saline solution comprising 0.5% Tween-80 is used to prepare bacterial suspension for experiment. Hemocytometer is utilized to adjust concentration of the bacterial suspension to 1-3×10^6 CFU/ml (0.5 McFarland units) to make stock solution in reserve at -20° C. During the sensitivity test, the RPMI-1640 liquid medium is diluted 1000 times to 1-3×10^3 CFU/ml. (3) The RPMI-1640 liquid is utilized as diluent to 10-fold dilute stock solution of peptides. […] The eleventh orifice is used as living control orifice, while the twelfth one as blank control. (4) The RPMI-1640 liquid is utilized as diluent to 10-fold dilute stock solution of FCZ and ICZ. […] Ditto for other operations.

candida albicans = test: microbe, parasite or virus in culture; type: cell-based
Procedure: as §1

aspergillus flavous = test: microbe, parasite or virus in culture; type: cell-based
Procedure: as §1

[1] = RP-HPLC temperature profiling: hydrophobicity and self-association; type: physicochemical; details: for tR(min) 5° C. / tR(min) 80° C.: RP-HPLC temperature profiling; for PA (min), association parameter: maximal normalized retention time difference within 5-80° C., self-association ability; for tR(min) Max: maximal retention time during temperature profiling 5-80° C.; for ΔtR(X-Peptide C)(min) 5° C.: retention time difference to control peptide C at 5° C.; for ΔtR(X-Peptide C)(min) 5° C. / ΔtR(X-Peptide C)(min) 80° C.: relative hydrophobicity; for ΔtR(X-Peptide C)(min) 80° C.: retention time difference to control peptide C at 80° C.; for Hydrophobicity tR5: retention time in RP-HPLC at pH 2, 5° C.; for Hydrophobicity tR80: retention time in RP-HPLC at pH 2, 80° C.
Procedure: Peptides are analyzed on an Agilent 1200 series liquid chromatograph (Little Falls, Del.). Runs are performed on a Zorbax 300 SB-C8 column (150×4.6 mm I.D.; 5 μm particle size, 300 Å pore size) from Agilent Technologies using linear AB gradient (1% acetonitrile/min) and a flow rate of 1 ml/min, where solvent A is 0.05% aqueous TFA, pH 2 and solvent B is 0.05% TFA in acetonitrile.
We further use temperature profiling during RP-HPLC to determine the self-association ability of various analogs of PL-13 (SEQ ID NO: 1) which would occur through interaction of the non-polar faces of these amphipathic peptides α-helices. We use 50% TFE aqueous acetonitrile and hydrophobic conditions in the reversed-phase column (hydrophobic stationary phase and the hydrophobic organic solvent in the mobile phase) since the hydrophobic environment of a reversed-phase column also could induce α-helical structure. Since its introduction, the technique of RP-HPLC temperature profiling has been applied on several types of molecules, including cyclic β-sheet peptides, monomeric α-helices and α-helices that dimerize, as well as α-helices that dimerize to form coiled-coils. Although peptides are eluted from a reversed-phase column mainly by an adsorption/desorption mechanism, even a peptide strongly bound to a hydrophobic stationary phase will partition between the matrix and the mobile phase when the acetonitrile content becomes high enough during gradient elution. In summary, the mechanism is based on four assumptions: (i) at low temperature, just as an amphipathic α-helical peptide is able to dimerize in aqueous solution (through its hydrophobic, non-polar face), it will dimerize in solution during partitioning in reversed-phase chromatography; (ii) at higher temperatures, the monomer-dimer equilibrium favors the monomer as the dimer is disrupted; (iii) at sufficiently high temperatures, only monomer is present in solution; and (iv) peptide is always bound in its monomeric helical form to the hydrophobic stationary phase, i.e., the dimer can only be present in solution and disruption of the dimer is required for rebinding to the RP-HPLC matrix.
([θ]222=−3,950). Since peptide C is a monomeric random coil peptide in both aqueous and hydrophobic media, its retention behavior over the temperature range 5-80° C. represents only general temperature effects on peptide retention behavior, i.e., a linear decrease in peptide retention time with increasing temperature due to greater solute diffusivity and enhanced mass transfer between the stationary and mobile phases at higher temperatures. Thus, after normalization to the retention times of peptide C, the retention behavior of the peptides only represents peptide self-association ability. Note that the higher the PA value, the greater the self-association ability. The order of peptide self-association ability of the three pairs of peptide enantiomers is identical to the order of peptide hydrophobicity. Apart from the decrease in retention time due to the general temperature effects noted above, destruction of the α-helix will also occur with increasing temperature, resulting in reduced retention times as the peptides become increasingly random coils.
The retention time data for the peptides is shown in Table 6 which records retention times at 5° C., the maximal retention times and retention times at 80° C. during the temperature profiling. Temperatures of 5-80° C. are the lower and upper temperature limits of temperature profiling in RP-HPLC, representing polymerization of the peptides at 5° C. and the monomerization of peptides at 80° C. due to denaturation of peptides by high temperature and dissociation of the polymers. The maximal retention times represent the threshold points at which peptides totally transform from polymeric to monomeric form. […]

[2] = Circular dichroism (CD) spectroscopy, helical structure; type: physicochemical; details: for 50% TFE % helix / Benign buffer % helix: relative to ellipticity (100%) of reference peptide in 50% TFE
Procedure: The mean residue molar ellipticities of peptides are determined by circular dichroism (CD) spectroscopy, using a Jasco J-720 spectropolarimeter (Jasco, Easton, Md.), at 25° C. under benign conditions (50 mM KH2PO4/K2HPO4/100 mM KCl, pH7), as well as in the presence of an α-helix inducing solvent, 2,2,2-trifluoroethanol (TFE) (50 mM KH2PO4/K2HPO4/100 mM KCL, pH 7 buffer/50% TFE). A 10-fold dilution of a 500 μM stock solution of the peptide is loaded into a 0.02 cm fused silica cell and its mean residue molar ellipticity scanned from 190 to 250 nm. The values of mean residue molar ellipticities of the peptide at a wavelength of 222 nm are used to estimate the relative amount of α-helicity of the peptides.
To determine the secondary structure of peptides in different environments, circular dichroism (CD) spectra of the peptide analogs are measured under physiologically related pH and ionic strength (100 mM KCl, 50 mM aq. PO4, pH 7 referred to as benign conditions) and also in 50% TFE to mimic the hydrophobic environment of the membrane. CD spectra of the peptide analogs are measured under benign conditions (100 mM KCl, 50 mM KH2PO4/K2HPO4, pH 7, referred to as KP buffer) and also in 50% trifluoroethanol (TFE) to mimic the hydrophobic environment of the membrane. […] However, in the presence of 50% TFE, all three L-peptides are fully folded α-helical structures with similar molar ellipticities and helicity.
FIG. 2 illustrates graphical results of Circular dichroism (CD) spectra of peptides at pH 7.4 and 25° C., in 50 mM aq. PO4 containing 100 mM KCl, wherein KP buffer (50 mM KH2PO4, K2HPO4, 100 mM KCl, pH 7.4) mimics hydrophilic environment and KP buffer-TFE (1:1 [vol/vol]) mimics hydrophobic environment of cell membrane. The figure above represents the CD spectra of peptides in benign buffer without TFE, whilst the figure below represents CD spectra obtained in the presence of 50% TFE.

aspergillus fumigatus = test: microbe, parasite or virus in culture; type: cell-based
Procedure: as §1

candida tropicalis = test: microbe, parasite or virus in culture; type: cell-based
Procedure: as §1

## Ac-KKLKKLFSKLWNW-NH2 (N-terminus and C-terminus assumed) [PL-30]
Candida glabrata
  Minimal inhibitory concentration: 32 µg/mL
Candida albicans
  Minimal inhibitory concentration: 16 µg/mL
Aspergillus flavous
  Minimal inhibitory concentration: >64 µg/mL

## CC(=O)N[C@H](CC(C)C)C(=O)N[C@H](Cc1ccccc1)C(=O)N[C@H](CCCCN)C(=O)N[C@H](CCCCN)C(=O)N[C@H](CC(C)C)C(=O)N[C@H](CCCCN)C(=O)N[C@H](CCCCN)C(=O)N[C@H](CC(C)C)C(=O)N[C@H](Cc1ccccc1)C(=O)N[C@H](CO)C(=O)N[C@H](CCCCN)C(=O)N[C@H](CC(C)C)C(=O)N[C@H](Cc1c[nH]c2ccccc12)C(=O)N[C@H](CC(N)=O)C(=O)N[C@H](Cc1c[nH]c2ccccc12)C(=O)N[C@H](CCCCN)C(N)=O [PL-51] (Ac-[dL][dF][dK][dK][dL][dK][dK][dL][dF][dS][dK][dL][dW][dN][dW][dK]-NH2; N-terminus and C-terminus assumed)
[1]
  tR(min) 5° C.: 42.59 min
  tR(min) 80° C.: 41.35 min
  PA (min), association parameter: 1.63 min
  tR(min) Max: 42.96 min
  ΔtR(X-Peptide C)(min) 5° C.: 20.02 min
  ΔtR(X-Peptide C)(min) 80° C.: 21.42 min
  Hydrophobicity tR5: 42.59 min
  Hydrophobicity tR80: 41.35 min
[2]
  50% TFE % helix: 100.0%
  Benign buffer % helix: 16.8%
[2]; mean residue molar ellipticity at 222 nm, 25° C., buffer containing 50% TFE
  50% TFE [θ]222: 28200 deg · cm^2 · dmol^−1
Aspergillus flavous
  Minimal inhibitory concentration: >64 µg/mL

## CC(=O)N[C@H](CCCCN)C(=O)N[C@H](CC(C)C)C(=O)N[C@H](CCCCN)C(=O)N[C@H](CCCCN)C(=O)N[C@H](CC(C)C)C(=O)N[C@H](Cc1ccccc1)C(=O)N[C@H](CO)C(=O)N[C@H](CCCCN)C(=O)N[C@H](CC(C)C)C(=O)N[C@H](Cc1c[nH]c2ccccc12)C(=O)N[C@H](CC(N)=O)C(=O)N[C@H](Cc1c[nH]c2ccccc12)C(=O)N[C@H](CCCCN)C(N)=O [PL-40] (Ac-[dK][dL][dK][dK][dL][dF][dS][dK][dL][dW][dN][dW][dK]-NH2; N-terminus and C-terminus assumed)
[1]
  tR(min) 5° C.: 33.16 min
  tR(min) 80° C.: 30.94 min
  PA (min), association parameter: 0.55 min
  tR(min) Max: 33.16 min
  ΔtR(X-Peptide C)(min) 5° C.: 10.60 min
  ΔtR(X-Peptide C)(min) 80° C.: 11.01 min
  Hydrophobicity tR5: 33.16 min
  Hydrophobicity tR80: 30.94 min
[2]
  50% TFE % helix: 70.7%
  Benign buffer % helix: 6.0%
Candida albicans
  Minimal inhibitory concentration: 16 µg/mL (≈ 9.09 µM)
Aspergillus flavous
  Minimal inhibitory concentration: >64 µg/mL

## Ac-FKKLKKKFSKLWNWK-NH2 (N-terminus and C-terminus assumed) [PL-23]
Candida glabrata
  Minimal inhibitory concentration: 32 µg/mL
Candida albicans
  Minimal inhibitory concentration: 16 µg/mL
Aspergillus flavous
  Minimal inhibitory concentration: >64 µg/mL
Aspergillus fumigatus
  Minimal inhibitory concentration: 64 µg/mL

## Ac-FKKFKKLLSKLWNWK-NH2 (N-terminus and C-terminus assumed) [PL-32]
Candida glabrata
  Minimal inhibitory concentration: 32 µg/mL
Aspergillus flavous
  Minimal inhibitory concentration: >64 µg/mL
Aspergillus fumigatus
  Minimal inhibitory concentration: 64 µg/mL

## CC(=O)N[C@H](Cc1ccccc1)C(=O)N[C@H](CCCCN)C(=O)N[C@H](CCCCN)C(=O)N[C@H](CC(C)C)C(=O)N[C@H](CCCCN)C(=O)N[C@H](CCCCN)C(=O)N[C@H](CC(C)C)C(=O)N[C@H](Cc1ccccc1)C(=O)N[C@H](CO)C(=O)N[C@H](CCCCN)C(=O)N[C@H](CC(C)C)C(=O)N[C@H](CC(C)C)C(=O)N[C@H](CC(N)=O)C(=O)N[C@H](CC(C)C)C(=O)N[C@H](CCCCN)C(N)=O [PL-37] (Ac-[dF][dK][dK][dL][dK][dK][dL][dF][dS][dK][dL][dL][dN][dL][dK]-NH2)
Aspergillus flavous
  Minimal inhibitory concentration: >64 µg/mL

## Ac-FKKLKKLFSKLWNWKK-NH2 (N-terminus and C-terminus assumed) [PL-48]
Candida tropicalis
  Minimal inhibitory concentration: 8 µg/mL
Aspergillus flavous
  Minimal inhibitory concentration: >64 µg/mL
Aspergillus fumigatus
  Minimal inhibitory concentration: 32 µg/mL
